From patent US7442692B2, “Indanyl-piperazine compounds” (Les Laboratoires Servier, priority 2005, dated 2008)
Structures can show the parent of a compound that is named as a salt.

Columns and labels:
[1] = biological target: T1, serotonin (5-HTT) reuptake site (Rattus norvegicus, UniProt P31652); assay: Affinity for serotonin reuptake sites in the rat ([3H]-citalopram competition); type: binding; conditions: rat frontal cortex membranes, read-out: pKi r5-HTT (converted)
T1 construct: from tissue; host or cells: rat frontal cortex membranes
T1 sequence (P31652 whole entry): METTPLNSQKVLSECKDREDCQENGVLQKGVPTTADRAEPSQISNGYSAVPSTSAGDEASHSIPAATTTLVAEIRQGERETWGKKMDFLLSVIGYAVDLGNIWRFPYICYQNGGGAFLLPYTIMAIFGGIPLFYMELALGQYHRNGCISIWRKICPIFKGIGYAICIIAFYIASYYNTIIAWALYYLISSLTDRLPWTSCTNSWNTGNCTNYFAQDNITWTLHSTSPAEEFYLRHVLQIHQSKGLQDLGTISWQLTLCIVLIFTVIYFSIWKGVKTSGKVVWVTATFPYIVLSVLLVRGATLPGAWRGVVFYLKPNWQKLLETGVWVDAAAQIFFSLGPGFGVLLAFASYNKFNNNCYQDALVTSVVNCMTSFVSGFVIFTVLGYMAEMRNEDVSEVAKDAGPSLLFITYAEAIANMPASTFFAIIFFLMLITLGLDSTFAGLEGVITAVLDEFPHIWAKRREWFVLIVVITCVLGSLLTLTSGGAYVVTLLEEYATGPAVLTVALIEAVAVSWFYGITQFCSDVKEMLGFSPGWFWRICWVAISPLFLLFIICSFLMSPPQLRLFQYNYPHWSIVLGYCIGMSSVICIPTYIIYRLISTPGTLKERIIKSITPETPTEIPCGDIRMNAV
Method: The cortices are homogenised using a Polytron in 40 volumes (weight/volume) of cold Tris-HCl (50 mM, pH 7.4) incubation buffer containing 120 mM NaCl and 5 mM KCl and are then centrifuged for a first time. The sediment is resuspended in the same buffer, incubated for 10 minutes at 37° C. and then re-centrifuged. The membranes are washed a further two times and the sediment is then resuspended in an appropriate volume of incubation buffer. […] Non-specific binding is determined with 10 μM fluoxetine. At the end of the incubation period, the samples are filtered through Unifilter GF/B type filters pretreated with PEI (0.5%) and washed several times with the incubation buffer. The radioactivity retained on the filters is counted after addition of scintillation liquid, with the aid of a scintillation counter. […] The results are expressed as pKi=−log Ki.

human NK1 receptors = biological target: T2, human NK1 receptors (Homo sapiens, UniProt P25103); assay: hNK1 binding ([3H]-Substance P competition on IM9 human lymphoblast cells); conditions: read-out: pKi NK1 (converted)
T2 construct: IM9 human lymphoblast cells endogenously expressing NK1 receptors; endogenous in cells; host or cells: IM9 human lymphoblast cells
T2 sequence (P25103 whole entry): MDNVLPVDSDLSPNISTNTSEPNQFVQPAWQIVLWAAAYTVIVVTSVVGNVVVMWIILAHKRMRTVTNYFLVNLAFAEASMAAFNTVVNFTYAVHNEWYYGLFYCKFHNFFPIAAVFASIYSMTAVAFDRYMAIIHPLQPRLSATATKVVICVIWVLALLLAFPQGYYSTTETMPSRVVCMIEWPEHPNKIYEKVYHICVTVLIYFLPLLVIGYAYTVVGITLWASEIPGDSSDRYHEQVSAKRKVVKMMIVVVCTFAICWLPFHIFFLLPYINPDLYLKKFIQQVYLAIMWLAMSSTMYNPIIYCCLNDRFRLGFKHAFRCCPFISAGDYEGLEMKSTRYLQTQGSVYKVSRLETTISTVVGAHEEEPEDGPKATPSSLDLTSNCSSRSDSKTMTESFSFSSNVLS
Method: IM9 human lymphoblast cells endogenously expressing NK1 receptors are centrifuged and taken up in the incubation buffer containing 50 mM TRIS, 150 mM NaCl, 4 mM CaCl2, protease inhibitors at 1/100^e (Cocktail SIGMA P8340) and 0.2% BSA. The volume of incubation buffer is determined so as to obtain a concentration of 5×10^6 cells/ml. […] Non-specific binding is determined in the presence of 1 μM GR 205171.
At the end of the incubation period, the samples ate filtered through Unifilter GF/B type filters pretreated with PEI (0.1%) and washed several times with the filtration buffer ([…], 150 mM NaCl, 4 mM CaCl2). The radioactivity retained on the filters is measured by counting after addition of scintillation liquid to the filters. The counts are […] analysed by non-linear regression, allowing the isotherms to be plotted and the IC50 values to be determined. […] The results are expressed as pKi (−log Ki).

Ki [1] [nM]	Ki (human NK1 receptors) [nM]	SMILES
245	3.39	Brc1cc(Br)cc(COCC2(N3CCNCC3)CCc3ccccc32)c1 (racemic) [Example 1, 1-[(1RS)-1-(3,5Dibromobenzyloxymethyl)indan-1-yl]piperazine dihydrochloride]
53.7	18.2	Cc1cc(C)cc(COCC2(N3CCNCC3)CCc3ccccc32)c1 (racemic) [Example 2, 1-[(1RS)-1-(3,5-Dimethylbenzyloxymethyl)indan-1-yl]piperazine dihydrochloride]
3.24		Fc1cc(F)cc(COCC2(N3CCNCC3)CCc3ccccc32)c1 (racemic) [Example 70, (1RS)-1-[1-(3,5Difluorobenzyloxymethyl)indan-1-yl]piperazine dihydrochloride]

Continued, compound first:

SMILES	Ki [1] [nM]	Ki (human NK1 receptors) [nM]
CN(Cc1ccccc1)C(=O)C1(N2CCNCC2)CCc2ccccc21 (racemic) [Example 11, (1RS)-N-Benzyl-N-methyl-1-(1-piperazinyl)-1-indancarboxamide dihydrochloride]		490
CN(Cc1cc(F)cc(F)c1)C(=O)C1(N2CCNCC2)CCc2ccccc21 (racemic) [Example 68, (1RS)-N-(3,5Difluorobenzyl)-N-methyl-1-(1-piperazinyl)-1-indan-carboxamide dihydrochloride]	33.9	
CN(Cc1cc(F)cc(C(F)(F)F)c1)C(=O)C1(N2CCNCC2)CCc2ccccc21 (racemic) [Example 69, (1RS)-N-[3-Fluoro-5(trifluoromethyl)benzyl]-N-methyl-1-(1-piperazinyl)-1-indancarboxamide dihydrochloride]	151	
CN(Cc1cc(Cl)cc(Cl)c1)C(=O)C1(N2CCNCC2)CCc2ccccc21 (racemic) [Example 85, (1RS)-N-(3,5-Dichlorobenzyl)-N-methyl-1-(1-piperazinyl)-1-indan-carboxamide dihydrochloride]	93.3	
Cc1cc(C)cc(COCC2(N3CCNCC3)Cc3ccccc3C2)c1 [Example 3, 1-[2-(3,5-Dimethylbenzyloxymethyl)indan-2-yl]piperazine dihydrochloride]	63.1	162
O=C(NCc1cc(C(F)(F)F)cc(C(F)(F)F)c1)C1(N2CCNCC2)Cc2ccccc2C1 [Example 5, N-[3,5-Bis(trifluoromethyl)benzyl]-2-(1-piperazinyl)-2-indan-carboxamide dihydrochloride]		398
CN(Cc1cc(Cl)cc(Cl)c1)CC1(N2CCNCC2)Cc2ccccc2C1 [Example 79, N-(3,5-Dichlorobenzyl)N-methyl-[2-(1-piperazinyl)indan-2-yl]-methanamine trihydrochloride]		513
CN(Cc1cc(F)cc(Cl)c1)C(=O)C1(N2CCNCC2)Cc2ccccc2C1 [Example 135, N-(3-Chloro-5-fluorobenzyl)-N-methyl-2-(1-piperazinyl)-2-indan-carboxamide dihydrochloride]	43.7	
